Experimental findings from patent publication US9399649B2, “Compounds for treating spinal muscular atrophy” (PTC Therapeutics Inc., priority 2012, dated 2016) are described below.

For data set [1], the system named is full length SMN2 minigene mRNA containing SMN2 exon 7. In words: SMN2 minigene mRNA splicing RT-qPCR assay in cultured cells. Format: cell-based, human. The settings on record: Homo sapiens, HEK293-H; HEK293H cells stably transfected with SMN2-A minigene, 24 hours, 7-point concentration curve; concentration giving 1.5-fold full length SMN2 mRNA vs vehicle; read-out: EC1.5x for production of full length SMN2 mRNA. The method in brief:
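HEK293H cells stably carrying SMN2-A minigene treated 24 h (37 °C) with compound, 7-point 3.16-fold dilution, duplicates. Multiplex RT-qPCR on lysate with exon 7/luciferase primers and exon 7–8 junction probe (minigene-specific). Full-length transcript normalised to GAPDH by modified ΔΔCt, expressed relative to vehicle-treated cells.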
On the technique in general: In qPCR the cycle at which signal appears reflects the starting amount.

In another data set the test system is Smn protein. Kind of data set: Smn protein assay in cultured cells (SMN HTRF). The conditions noted are these: SMA patient fibroblast cells (GM03813), 48 hours; for EC1.5x for Smn protein expression: 7-point concentration curve, concentration producing 1.5 times Smn protein vs DMSO vehicle; for maximum fold (Fold) increase of Smn protein: 7-point concentration data, relative to vehicle control. Format: cell-based, human. The method in brief: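 SMA patient fibroblasts, 5,000 per well in DMEM-10% FBS, exposed 48 h at 37° C. to a 7-point, 3.16-fold compound series in triplicate. RIPA lysates read by SMN HTRF (665/620 nm, overnight at room temperature); ΔF over blank expressed as fold of vehicle.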

By melting point is commonly meant the temperature, or range, at which the solid turns liquid.

`CCN1CCN(c2ccc3cc(-c4cn5cc(C)nc(C)c5n4)oc(=O)c3c2)CC1` [Cpd 73, 3-(6,8-dimethylimidazo[1,2-a]pyrazin-2-yl)-7-(4-ethylpiperazin-1-yl)-1H-isochromen-1-one] registered a melting point of 238 to 240 °C. Moreover, in data set [1], the EC (1.5-fold) is no more than 0.1 µM. Further, in the data set with Smn protein, the “EC1.5x for Smn protein expression” value is “**** (an EC1.5×≦0.3 nM is indicated by four stars (****))” and the “maximum fold (Fold) increase of Smn protein” value (from here on “maximum fold (Fold) increase”) was “***** (a fold increase >1.65 is indicated by five stars (*****))”.
`COc1cc(-c2cc3ccc(N4CCN[C@@H](C)C4)cc3c(=O)o2)ccc1F` [Cpd 47, 3-(4-fluoro-3-methoxyphenyl)-7-[(3S)-3-methylpiperazin-1-yl]-1H-isochromen-1-one] gave a melting point of 118 to 120 °C. In data set [1], the EC (1.5-fold) lay in the range of 3 to 30 µM. Also, the “maximum fold (Fold) increase” value with Smn protein is listed as “* (A maximum fold increase of ≦1.2 is indicated by one star (*))”.
`Cc1cn2cc(-c3cc4ccc(C5=CCN(C6CCC6)CC5)cc4c(=O)o3)nc2c(C)n1` [Cpd 94, 7-(1-cyclobutyl-1,2,3,6-tetrahydropyridin-4-yl)-3-(6,8-dimethylimidazo[1,2-a]pyrazin-2-yl)-1H-isochromen-1-one]: the melting point lay within 252 to 254 °C. The EC (1.5-fold) in data set [1] is no more than 0.1 µM. In addition, in the data set on Smn protein, the “EC1.5x for Smn protein expression” value was “*** (an EC1.5× between >0.3 nM and ≦1 nM is indicated by three stars (***))”; the “maximum fold (Fold) increase” value was “***** (a fold increase >1.65 is indicated by five stars (*****))”.
As for `COc1ccc(-c2cc3ccc(N4C[C@@H](C)N[C@@H](C)C4)cc3c(=O)o2)cc1OC` [Cpd 17, 3-(3,4-dimethoxyphenyl)-7-[(3R,5S)-3,5-dimethylpiperazin-1-yl]-1H-isochromen-1-one], the melting point lay within 309 to 311 °C. The EC (1.5-fold) in data set [1] was 0.3 to 1 µM. Further, the “maximum fold (Fold) increase” value in the data set with Smn protein was “*** (a fold increase between >1.35 and ≦1.5 is indicated by three stars (***))”.
`Cc1cn2cc(-c3cc4ccc(N5CCN(C6CCC6)[C@@H](C)C5)cc4c(=O)o3)nc2c(C)n1` [Cpd 136, 7-[(3S)-4-cyclobutyl-3-methylpiperazin-1-yl]-3-(6,8-dimethylimidazo[1,2-a]pyrazin-2-yl)-1H-isochromen-1-one] yielded a melting point of 277 to 282 °C. The EC (1.5-fold) in data set [1] is no more than 0.1 µM. In the data set on Smn protein, the “EC1.5x for Smn protein expression” value is listed as “**** (an EC1.5×≦0.3 nM is indicated by four stars (****))” and the “maximum fold (Fold) increase” value is recorded as “***** (a fold increase >1.65 is indicated by five stars (*****))”.
In the case of `Cc1cn2cc(-c3cc4ccc(N5CCN(C(C)C)CC5)cc4c(=O)o3)nc2cn1` [Cpd 128, 3-(6-methylimidazo[1,2-a]pyrazin-2-yl)-7-[4-(propan-2-yl)piperazin-1-yl]-1H-isochromen-1-one], the melting point fell in the range of 231 to 236 °C. For the same compound, the EC (1.5-fold) in data set [1] is no more than 0.1 µM. In the data set on Smn protein, the “EC1.5x for Smn protein expression” value is on record as “**** (an EC1.5×≦0.3 nM is indicated by four stars (****))” and the “maximum fold (Fold) increase” value is recorded as “***** (a fold increase >1.65 is indicated by five stars (*****))”.
`COc1ccc(-c2cc3ccc(N4CCN(C)[C@@H](C)C4)cc3c(=O)o2)cc1OC` [Cpd 67, 3-(3,4-dimethoxyphenyl)-7-[(3S)-3,4-dimethylpiperazin-1-yl]-1H-isochromen-1-one] displayed a melting point of 138 to 140 °C. The EC (1.5-fold) in data set [1] is 0.3 to 1 µM. In addition, in the data set with Smn protein, the “EC1.5x for Smn protein expression” value is “** (an EC1.5× between >1 μM, and ≦3 nM is indicated by two stars (**))”; the “maximum fold (Fold) increase” value is “*** (a fold increase between >1.35 and ≦1.5 is indicated by three stars (***))”.
Consider `O=c1oc(-c2cn3ccccc3n2)cc2ccc(N3CCNCC3)cc12` [Cpd 26, 3-(imidazo[1,2-a]pyridin-2-yl)-7-(piperazin-1-yl)-1H-isochromen-1-one], for which the melting point was 248 °C (dec.). For the same compound, the EC (1.5-fold) in data set [1] lay within 1 to 3 µM. In the data set with Smn protein, the “maximum fold (Fold) increase” value was “* (A maximum fold increase of ≦1.2 is indicated by one star (*))”.
The corresponding values for `C[C@H]1CN(c2ccc3cc(-c4ccc5c(c4)OCO5)oc(=O)c3c2)CCN1` [Cpd 40, 3-(1,3-benzodioxol-5-yl)-7-[(3S)-3-methylpiperazin-1-yl]-1H-isochromen-1-one] are 248 to 250 °C, 0.3 to 1 µM and “* (A maximum fold increase of ≦1.2 is indicated by one star (*))”.
For `CCc1nc(C)cn2cc(-c3cc4ccc(N5CCN[C@@H](C)C5)cc4c(=O)o3)nc12` [Cpd 152, 3-(8-ethyl-6-methylimidazo[1,2-a]pyrazin-2-yl)-7-[(3S)-3-methylpiperazin-1-yl]-1H-isochromen-1-one], the melting point lay in the range of 206 to 211 °C. In addition, the EC (1.5-fold) in data set [1] is no more than 0.1 µM. Moreover, in the data set on Smn protein, the “EC1.5x for Smn protein expression” value is recorded as “**** (an EC1.5×≦0.3 nM is indicated by four stars (****))” and the “maximum fold (Fold) increase” value is “***** (a fold increase >1.65 is indicated by five stars (*****))”.
In turn, `Cc1cn2cc(-c3cc4ccc(N5CCN(C)[C@@H](C)C5)cc4c(=O)o3)nc2cn1` [Cpd 121, 7-[(3S)-3,4-dimethylpiperazin-1-yl]-3-(6-methylimidazo[1,2-a]pyrazin-2-yl)-1H-isochromen-1-one] returned a melting point of 250 to 255 °C. Further, the EC (1.5-fold) in data set [1] is no more than 0.1 µM. Besides, in the data set with Smn protein, the “EC1.5x for Smn protein expression” value is reported as “**** (an EC1.5×≦0.3 nM is indicated by four stars (****))” and the “maximum fold (Fold) increase” value is given as “***** (a fold increase >1.65 is indicated by five stars (*****))”.
Consider `CN1CCCN(c2ccc3cc(-c4ccc5c(c4)OC(F)(F)O5)oc(=O)c3c2)CC1` [Cpd 7, 3-(2,2-difluoro-1,3-benzodioxol-5-yl)-7-(4-methyl-1,4-diazepan-1-yl)-1H-isochromen-1-one], for which the melting point is 175 to 177 °C. Besides, in data set [1], the EC (1.5-fold) is 1 to 3 µM. Also, in the data set with Smn protein, the “maximum fold (Fold) increase” value is on record as “* (A maximum fold increase of ≦1.2 is indicated by one star (*))”.
`Cc1cn2cc(-c3cc4ccc(N5CCN(CCO)CC5)cc4c(=O)o3)nc2c(C)n1` [Cpd 75, 3-(6,8-dimethylimidazo[1,2-a]pyrazin-2-yl)-7-[4-(2-hydroxyethyl)piperazin-1-yl]-1H-isochromen-1-one] displayed a melting point of 248 to 250 °C. Besides, the EC (1.5-fold) in data set [1] was no more than 0.1 µM. Further, in the data set with Smn protein, the “EC1.5x for Smn protein expression” value was “*** (an EC1.5× between >0.3 nM and ≦1 nM is indicated by three stars (***))”; the “maximum fold (Fold) increase” value is reported as “***** (a fold increase >1.65 is indicated by five stars (*****))”.
`O=c1oc(-c2cn3ccsc3n2)cc2ccc(N3CCNCC3)cc12` [Cpd 28, 3-(imidazo[2,1-b][1,3]thiazol-6-yl)-7-(piperazin-1-yl)-1H-isochromen-1-one] showed a melting point of 224 to 226 °C. Besides, the EC (1.5-fold) in data set [1] was 0.3 to 1 µM. The “maximum fold (Fold) increase” value in the data set with Smn protein is “*** (a fold increase between >1.35 and ≦1.5 is indicated by three stars (***))”.
